{"source": "the supplement of paper PMC10307832", "test_in_all_cases": "relative viability (nuclei count vs DMSO), 5 days (fraction); higher = more cells survive", "key": {"[1]": {"system": "NCI-H1944", "outline": "(§1)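 For relative viability, nuclei counts in treated wells were divided by those in vehicle wells. Lung cancer cell lines had been pin-tool dosed in 1536-well plates the day after seeding and cultured for 5 days, then fixed and stained in one step (final 0.05% Triton X-100, 1% formaldehyde, 1 ug/ml Hoechst) and imaged at 4×. Doses were one drug alone or a fixed anchor-drug dose plus five library-drug doses (not always all listed) in √10 steps, and values are duplicate-plate medians.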"}, "[2]": {"system": "NCI-H1734", "outline": "as §1"}, "[3]": {"system": "SW 900", "outline": "as §1"}, "[4]": {"system": "LCLC-97TM1", "outline": "as §1"}, "[5]": {"system": "BEN", "outline": "as §1"}, "[6]": {"system": "EMC-BAC-2", "outline": "as §1"}, "[7]": {"system": "NCI-H1792", "outline": "as §1"}, "[8]": {"system": "NCI-H2087", "outline": "as §1"}, "[9]": {"system": "COR-L 105", "outline": "as §1"}, "[10]": {"system": "NCI-H727", "outline": "as §1"}, "[11]": {"system": "LK-2", "outline": "as §1"}, "[12]": {"system": "NCI-H522", "outline": "as §1"}, "[13]": {"system": "RERF-LC-KJ", "outline": "as §1"}, "[14]": {"system": "NCI-H2126", "outline": "as §1"}, "[15]": {"system": "NCI-H358", "outline": "as §1"}, "[16]": {"system": "EPLC-272H", "outline": "as §1"}, "[17]": {"system": "EKVX", "outline": "as §1"}, "[18]": {"system": "NCI-H1650", "outline": "as §1"}, "[19]": {"system": "SK-MES-1", "outline": "as §1"}, "[20]": {"system": "NCI-H1563", "outline": "as §1"}, "[21]": {"system": "LOU-NH91", "outline": "as §1"}, "[22]": {"system": "LU99A", "outline": "as §1"}, "[23]": {"system": "SW 1573", "outline": "as §1"}, "[24]": {"system": "HCC-827", "outline": "as §1"}}}
{"smiles": "CCCCCCCCCCCC1=C(O)C(=O)C=C(O)C1=O", "note": "[Embelin] + CCNC(=O)c1noc(-c2cc(C(C)C)c(O)cc2O)c1-c1ccc(CN2CCOCC2)cc1 [Luminespib] (partner 0.01 µM)", "values": [{"measurement": "relative viability", "setting": "[1]; first compound 0.08 µM", "result": 0.726}, {"measurement": "relative viability", "setting": "[1]; first compound 0.8 µM", "result": 0.849}, {"measurement": "relative viability", "setting": "[1]; first compound 2.53 µM", "result": 0.882}, {"measurement": "relative viability", "setting": "[1]; first compound 8 µM", "result": 0.78}, {"measurement": "relative viability", "setting": "[2]; first compound 0.08 µM", "result": 0.201}, {"measurement": "relative viability", "setting": "[2]; first compound 0.8 µM", "result": 0.208}, {"measurement": "relative viability", "setting": "[2]; first compound 2.53 µM", "result": 0.208}, {"measurement": "relative viability", "setting": "[2]; first compound 8 µM", "result": 0.197}, {"measurement": "relative viability", "setting": "[3]; first compound 0.08 µM", "result": 0.196}, {"measurement": "relative viability", "setting": "[3]; first compound 0.8 µM", "result": 0.138}, {"measurement": "relative viability", "setting": "[3]; first compound 2.53 µM", "result": 0.188}, {"measurement": "relative viability", "setting": "[3]; first compound 8 µM", "result": 0.18}, {"measurement": "relative viability", "setting": "[4]; first compound 0.08 µM", "result": 0.78}, {"measurement": "relative viability", "setting": "[4]; first compound 0.8 µM", "result": 0.899}, {"measurement": "relative viability", "setting": "[4]; first compound 2.53 µM", "result": 0.907}, {"measurement": "relative viability", "setting": "[4]; first compound 8 µM", "result": 0.872}, {"measurement": "relative viability", "setting": "[5]; first compound 0.08 µM", "result": 0.29}, {"measurement": "relative viability", "setting": "[5]; first compound 0.8 µM", "result": 1.12}, {"measurement": "relative viability", "setting": "[5]; first compound 2.53 µM", "result": 0.435}, {"measurement": "relative viability", "setting": "[5]; first compound 8 µM", "result": 0.517}, {"measurement": "relative viability", "setting": "[6]; first compound 0.08 µM", "result": 1.14}, {"measurement": "relative viability", "setting": "[6]; first compound 0.8 µM", "result": 1.38}, {"measurement": "relative viability", "setting": "[6]; first compound 2.53 µM", "result": 1.22}, {"measurement": "relative viability", "setting": "[6]; first compound 8 µM", "result": 1.29}, {"measurement": "relative viability", "setting": "[7]; first compound 0.08 µM", "result": 0.363}, {"measurement": "relative viability", "setting": "[7]; first compound 0.8 µM", "result": 0.515}, {"measurement": "relative viability", "setting": "[7]; first compound 2.53 µM", "result": 0.46}, {"measurement": "relative viability", "setting": "[7]; first compound 8 µM", "result": 0.516}, {"measurement": "relative viability", "setting": "[8]; first compound 0.08 µM", "result": 0.162}, {"measurement": "relative viability", "setting": "[8]; first compound 0.8 µM", "result": 0.186}, {"measurement": "relative viability", "setting": "[8]; first compound 2.53 µM", "result": 0.141}, {"measurement": "relative viability", "setting": "[8]; first compound 8 µM", "result": 0.172}, {"measurement": "relative viability", "setting": "[9]; first compound 0.08 µM", "result": 0.778}, {"measurement": "relative viability", "setting": "[9]; first compound 0.8 µM", "result": 0.894}, {"measurement": "relative viability", "setting": "[9]; first compound 2.53 µM", "result": 0.737}, {"measurement": "relative viability", "setting": "[9]; first compound 8 µM", "result": 0.624}, {"measurement": "relative viability", "setting": "[10]; first compound 0.08 µM", "result": 0.317}, {"measurement": "relative viability", "setting": "[10]; first compound 0.8 µM", "result": 0.417}, {"measurement": "relative viability", "setting": "[10]; first compound 2.53 µM", "result": 0.304}, {"measurement": "relative viability", "setting": "[10]; first compound 8 µM", "result": 0.386}, {"measurement": "relative viability", "setting": "[11]; first compound 0.08 µM", "result": 0.17}, {"measurement": "relative viability", "setting": "[11]; first compound 0.8 µM", "result": 0.281}, {"measurement": "relative viability", "setting": "[11]; first compound 2.53 µM", "result": 0.189}, {"measurement": "relative viability", "setting": "[11]; first compound 8 µM", "result": 0.198}, {"measurement": "relative viability", "setting": "[12]; first compound 0.08 µM", "result": 1.26}, {"measurement": "relative viability", "setting": "[12]; first compound 0.8 µM", "result": 1.2}, {"measurement": "relative viability", "setting": "[12]; first compound 2.53 µM", "result": 1.34}, {"measurement": "relative viability", "setting": "[12]; first compound 8 µM", "result": 1.12}, {"measurement": "relative viability", "setting": "[13]; first compound 0.08 µM", "result": 1.05}, {"measurement": "relative viability", "setting": "[13]; first compound 0.8 µM", "result": 1.13}, {"measurement": "relative viability", "setting": "[13]; first compound 2.53 µM", "result": 1.51}, {"measurement": "relative viability", "setting": "[13]; first compound 8 µM", "result": 0.55}, {"measurement": "relative viability", "setting": "[14]; first compound 0.08 µM", "result": 0.838}, {"measurement": "relative viability", "setting": "[14]; first compound 0.8 µM", "result": 1.01}, {"measurement": "relative viability", "setting": "[14]; first compound 2.53 µM", "result": 0.965}, {"measurement": "relative viability", "setting": "[14]; first compound 8 µM", "result": 0.927}, {"measurement": "relative viability", "setting": "[15]; first compound 0.08 µM", "result": 0.464}, {"measurement": "relative viability", "setting": "[15]; first compound 0.8 µM", "result": 0.447}, {"measurement": "relative viability", "setting": "[15]; first compound 2.53 µM", "result": 0.44}, {"measurement": "relative viability", "setting": "[15]; first compound 8 µM", "result": 0.306}, {"measurement": "relative viability", "setting": "[16]; first compound 0.08 µM", "result": 0.69}, {"measurement": "relative viability", "setting": "[16]; first compound 0.8 µM", "result": 0.222}, {"measurement": "relative viability", "setting": "[16]; first compound 2.53 µM", "result": 0.253}, {"measurement": "relative viability", "setting": "[16]; first compound 8 µM", "result": 0.266}, {"measurement": "relative viability", "setting": "[17]; first compound 0.08 µM", "result": 0.864}, {"measurement": "relative viability", "setting": "[17]; first compound 0.8 µM", "result": 0.888}, {"measurement": "relative viability", "setting": "[17]; first compound 2.53 µM", "result": 0.876}, {"measurement": "relative viability", "setting": "[17]; first compound 8 µM", "result": 0.966}, {"measurement": "relative viability", "setting": "[18]; first compound 0.08 µM", "result": 0.16}, {"measurement": "relative viability", "setting": "[18]; first compound 0.8 µM", "result": 0.196}, {"measurement": "relative viability", "setting": "[18]; first compound 2.53 µM", "result": 0.212}, {"measurement": "relative viability", "setting": "[18]; first compound 8 µM", "result": 0.185}, {"measurement": "relative viability", "setting": "[19]; first compound 0.08 µM", "result": 0.723}, {"measurement": "relative viability", "setting": "[19]; first compound 0.8 µM", "result": 1.05}, {"measurement": "relative viability", "setting": "[19]; first compound 2.53 µM", "result": 0.918}, {"measurement": "relative viability", "setting": "[19]; first compound 8 µM", "result": 0.695}, {"measurement": "relative viability", "setting": "[20]; first compound 0.08 µM", "result": 0.568}, {"measurement": "relative viability", "setting": "[20]; first compound 0.8 µM", "result": 0.573}, {"measurement": "relative viability", "setting": "[20]; first compound 2.53 µM", "result": 0.526}, {"measurement": "relative viability", "setting": "[20]; first compound 8 µM", "result": 0.487}, {"measurement": "relative viability", "setting": "[21]; first compound 0.08 µM", "result": 0.429}, {"measurement": "relative viability", "setting": "[21]; first compound 0.8 µM", "result": 0.369}, {"measurement": "relative viability", "setting": "[21]; first compound 2.53 µM", "result": 0.36}, {"measurement": "relative viability", "setting": "[21]; first compound 8 µM", "result": 0.299}, {"measurement": "relative viability", "setting": "[22]; first compound 0.08 µM", "result": 0.273}, {"measurement": "relative viability", "setting": "[22]; first compound 0.8 µM", "result": 0.275}, {"measurement": "relative viability", "setting": "[22]; first compound 2.53 µM", "result": 0.28}, {"measurement": "relative viability", "setting": "[22]; first compound 8 µM", "result": 0.279}, {"measurement": "relative viability", "setting": "[23]; first compound 0.08 µM", "result": 0.256}, {"measurement": "relative viability", "setting": "[23]; first compound 0.8 µM", "result": 0.341}, {"measurement": "relative viability", "setting": "[23]; first compound 2.53 µM", "result": 0.252}, {"measurement": "relative viability", "setting": "[23]; first compound 8 µM", "result": 0.216}, {"measurement": "relative viability", "setting": "[24]; first compound 0.08 µM", "result": 0.857}, {"measurement": "relative viability", "setting": "[24]; first compound 0.8 µM", "result": 0.885}, {"measurement": "relative viability", "setting": "[24]; first compound 2.53 µM", "result": 0.864}, {"measurement": "relative viability", "setting": "[24]; first compound 8 µM", "result": 0.657}]}
